Results published in patent publication USH83H, “Dental antiplaque agents and inhibitors of connective tissue destruction” (American Cyanamid Company, priority 1985, dated 1986).
Counter-ions that a name gives are not always drawn.

What was measured:
collagenase = details: literature or U.S. Pat. No. 4,297,372; cited from earlier work
[1] = target: T1, human skin fibroblast collagenase (Homo sapiens, UniProt P03956); experiment: Collagenase Assay, Test Code 006 (degradation of radiolabeled native collagen fibrils); type: biochemical; details: test conc.: 30 μg/ml; ratio of weight (μg) for 50% inhibition vs reference 6,6'-[ureylenebis(m-phenylenecarbonylimino)] analog; >1 = less active
T1 construct: endogenous in cells; host or cells: human skin fibroblasts
T1 sequence (P03956 100-469): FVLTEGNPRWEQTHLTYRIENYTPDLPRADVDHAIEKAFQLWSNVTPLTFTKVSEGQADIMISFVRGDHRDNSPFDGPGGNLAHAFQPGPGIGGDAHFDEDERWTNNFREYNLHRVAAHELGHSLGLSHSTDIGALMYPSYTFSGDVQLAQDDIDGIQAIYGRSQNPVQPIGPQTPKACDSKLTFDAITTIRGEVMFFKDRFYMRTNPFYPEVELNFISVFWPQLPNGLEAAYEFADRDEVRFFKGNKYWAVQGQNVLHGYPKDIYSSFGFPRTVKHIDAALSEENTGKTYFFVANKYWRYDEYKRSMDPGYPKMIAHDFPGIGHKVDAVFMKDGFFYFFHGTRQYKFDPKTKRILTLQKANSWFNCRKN
Method: (i) Collagenase Assay--Test Code 006
A collagenase assay was performed by a modification of the method of Harper, et al., Biochem., 10, 3035 (1971). In a typical assay (total volume of 0.45 ml), 100 μl of the activated enzyme was added to the ^14 C-labeled collagen fibrils (250 μl) followed by 100 μl of 50 mM cacodylate, pH 7.4, containing 5 mM calcium chloride. After incubation at 37° C. for 16 hours, the tubes were centrifuged in a Beckman microfuge for five minutes at full speed. An aliquot (200 μl) of the supernatant, representing collagenase digestion products of the fibril, was assayed for radioactivity. The effect of the test compound on collagen degradation by collagenase was examined as follows:
Varying concentrations of the test compound (in distilled water) were added to the assay tubes containing active collagenase (total volume 450 μl) and after 16 hours the amount of radioactivity in the supernatant was determined. Appropriate blanks and trypsin controls were run in parallel.
The result is expressed as an ID50 collagenase value which represents a ratio of the weight (μg) of the representative compound required for 50% inhibition of collagenase over the weight (μg) of 6,6'-[ureylenebis(m-phenylenecarbonylimino)]bis[4-hydroxy-2-naphthalenesulfonic acid]disodium salt required for 50% inhibition of collagenase.

[2] = In vitro binding (competition) assay with 14C reference compound on tooth powder; details: 1 mg tooth powder, PBS, 60 minutes at 37° C.; relative to reference 6,6'-[ureylenebis(m-phenylenecarbonylimino)] analog; >1 = less efficient
Description: Using (radioactive) ^14 C-6,6'-[ureylenebis(m-phenylenecarbonylimino)]bis[4-hydroxy-2-naphthalenesulfonic acid]disodium salt, an in vitro binding (competition) assay procedure has been established which involves an insoluble substrate such as tooth powder which will bind the ^14 C-6,6'-[ureylenebis(m-phenylenecarbonylimino)]bis[4-hydroxy-2-naphthalenesulfonic acid]disodium salt. The amount of ^14 C-6,6'-[ureylenebis(m-phenylenecarbonylimino)]bis[4-hydroxy-2-naphthalenesulfonic acid]disodium salt bound is determined by washing away the unbound radioactive compound and counting CPM (counts per minute) of the insoluble tooth powder/^14 C-6,6'-[ureylenebis(m-phenylenecarbonylimino)]bis[4-hydroxy-2-naphthalenesulfonic acid]disodium salt complex. […] The inhibiting effect of the test compound on binding compared to non-radioactive 6,6'-[ureylenebis(m-phenylenecarbonylimino)]bis[4-hydroxy-2-naphthalenesulfonic acid]disodium salt was determined as follows: A one mg amount of tooth powder was incubated in one ml of phosphate buffered saline (PBS) with 10 μg of ^14 C-6,6'-[ureylenebis(m-phenylenecarbonylimino)]bis[4-hydroxy-2-naphthalenesulfonic acid]disodium salt and varying dose amounts (ranging from 0 to 2 mg) of the same cold (non-radioactive) compound. […]

corneal ulcerations = details: directly applied; alkali burned rabbit; cited from earlier work
[3] = Binding to insoluble collagenous structures; details: teeth, dentin, gingiva and the like
corneal ulceration = details: human; cited from earlier work
[4] = compared with cysteine; cited from earlier work

Molecule	collagenase inhibition / inhibition of collagen degradation (collagenase)	also measured
c1cnc2c(c1)ccc1cccnc12 [1,10-phenanthroline]	collagenase inhibitors	
O=C(Nc1ccc(S(=O)(=O)Nc2ccc3cc(S(=O)(=O)O)cc(O)c3c2)cc1)Nc1ccc(S(=O)(=O)Nc2ccc3cc(S(=O)(=O)O)cc(O)c3c2)cc1 [6,6'-[Ureylenebis(p-phenylenesulfonylimino)]bis-[4-hydroxy-2-naphthalenesulfonic acid]disodium salt]		ID50 Collagenase Ratio [1]: 1.73; ID50 Binding Ratio [2]: 1.55
sodium auriothiomalate	collagenase inhibitors	
Cc1ccc(C(=O)Nc2ccc(S(=O)(=O)O)c3cc(S(=O)(=O)O)cc(S(=O)(=O)O)c23)cc1NC(=O)c1cccc(NC(=O)Nc2cccc(C(=O)Nc3cc(C(=O)Nc4ccc(S(=O)(=O)O)c5cc(S(=O)(=O)O)cc(S(=O)(=O)O)c45)ccc3C)c2)c1 [Suramin]	not inhibiting the action of collagenase	
O[C@H](CS)[C@H](O)CS (racemic) [dithiothreitol]	collagenase inhibitors	
O=C([O-])CN(CCN(CC(=O)[O-])CC(=O)[O-])CC(=O)[O-].[Ca+2].[Ca+2] [Calcium ethylenediaminetetraacetate]		frequency of corneal ulceration (corneal ulcerations): reduce the frequency of ulceration
Cc1cc(-c2ccc(/N=N/c3c(S(=O)(=O)O)cc4cc(S(=O)(=O)O)cc(N)c4c3O)c(C)c2)ccc1/N=N/c1c(S(=O)(=O)O)cc2cc(S(=O)(=O)O)cc(N)c2c1O [trypan blue]	inhibiting the activity of collagenase	
O=C(Nc1cccc(C(=O)Nc2ccc3cc(S(=O)(=O)O)cc(O)c3c2)c1)Nc1cccc(C(=O)Nc2ccc3cc(S(=O)(=O)O)cc(O)c3c2)c1 [6,6'-[ureylenebis(m-phenylenecarbonylimino)]bis[4-hydroxy-2-naphthalenesulfonic acid]disodium salt]	inhibitor of the degradation of collagen	reversibility and saturability of binding [3]: saturable and reversible
CC(=O)N[C@@H](CS)C(=O)O [acetylcysteine]		frequency of corneal ulceration (corneal ulcerations): reduce the frequency of ulceration; treatment of acute and chronic corneal ulceration (corneal ulceration): effective in the treatment of acute and chronic corneal ulceration; stability [4]: greater stability
α2 -macroglobulin: serum component; naturally occurring collagenase inhibitor	collagenase inhibitors	
N[C@@H](CS)C(=O)O [cysteine]	collagenase inhibitors	treatment of acute and chronic corneal ulceration (corneal ulceration): effective in the treatment of acute and chronic corneal ulceration
